Earlier results in US20210153530A1, “FOOD PROTECTING COMPOSITION FOR MEAT, MEAT PRODUCTS AND DAIRY PRODUCTS” (priority 2018, published 2021).

Tests used:
[1] = system: coliform microorganisms and arerobic spore-forming microorganisms; conditions: raw pork goulash, heat-treated
[2] = system: moulds and yeasts; conditions: raw pork, heat-treated and pasteurised

N=C(N)N [guanidium]
influence on coliform and aerobic spore-forming microorganisms [1]: not significantly influenced | effect on growth of moulds and yeasts [2]: has an effect on the growth
